Laboratory results published in US20120020915A1, “Compounds and Methods for Treating Cancer and Diseases of the Central Nervous System” (QUEENS UNIVERSITY AT KINGSTON, priority 2007, published 2012).
Entries after “also recorded” stand apart in the source; their conditions may differ.

What was measured:
HO-2 (rat brain) = target: T1, HO-2 (rat brain) (Rattus norvegicus, UniProt P23711); assay: HO enzymatic activity, rat brain microsomal fraction (CO formation from methemalbumin); format: biochemical; conditions: CO formation from methemalbumin, mean ± SD of replicate experiments, read-out: IC50 HO-2 (rat brain)/μM)
T1 construct: brain microsomes were used as a source of HO-2; from tissue; host or cells: brain microsomal fraction of adult male Sprague-Dawley rats
T1 sequence (P23711 1-315): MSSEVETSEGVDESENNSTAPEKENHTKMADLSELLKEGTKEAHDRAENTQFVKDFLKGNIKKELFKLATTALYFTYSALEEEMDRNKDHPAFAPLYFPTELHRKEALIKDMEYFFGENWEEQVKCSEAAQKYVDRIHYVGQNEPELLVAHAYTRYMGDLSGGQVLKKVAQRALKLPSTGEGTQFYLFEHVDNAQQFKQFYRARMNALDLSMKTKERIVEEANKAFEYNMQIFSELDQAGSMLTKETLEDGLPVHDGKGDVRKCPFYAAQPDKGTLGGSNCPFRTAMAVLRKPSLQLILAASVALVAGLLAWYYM

HO-1 (rat spleen) = target: T2, HO-1 (rat spleen) (Rattus norvegicus, UniProt P06762); assay: HO enzymatic activity, rat spleen microsomal fraction (CO formation from methemalbumin); format: biochemical; conditions: CO formation from methemalbumin, mean ± SD of replicate experiments, read-out: IC50 HO-1 (rat spleen/μM)
T2 construct: Spleen microsomes were used as a source of HO-1; from tissue; host or cells: spleen microsomal fraction of adult male Sprague-Dawley rats
T2 sequence (P06762 1-289): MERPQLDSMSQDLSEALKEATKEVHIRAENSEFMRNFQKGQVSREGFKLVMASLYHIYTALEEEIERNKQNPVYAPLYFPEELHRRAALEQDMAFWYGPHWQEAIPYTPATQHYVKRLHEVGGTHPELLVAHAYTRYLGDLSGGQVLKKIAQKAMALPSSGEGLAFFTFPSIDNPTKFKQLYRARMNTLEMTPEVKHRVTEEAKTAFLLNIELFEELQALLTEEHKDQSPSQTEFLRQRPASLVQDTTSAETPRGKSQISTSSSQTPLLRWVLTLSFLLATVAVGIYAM

[1] = Toxicity / tolerability of QC-56 in SCID mice (pilot study); format: in vivo
Source text: IV.I (iii) Bioassay Species and strain: Mouse (Mus musculus); SCID, male Age at dosing initiation: 8 weeks old.
Once tumors became palpable, mice were randomized into experimental groups and the treatment was initiated.

[2] = test system: HCT-116 colorectal carcinoma; assay: Colorectal carcinoma model HCT-116 in SCID mice, tumor growth delay; format: in vivo, Mouse (Mus musculus); male SCID; conditions: dosage of 60 mg/kg
Source text: (§1) Control groups received the vehicle alone.

[3] = test system: B16-BL6 cells (mouse melanoma); assay: Metastatic B16-BL6 melanoma model, lung surface metastases; format: in vivo; conditions: vehicle control: 101
Description: B16-BL6 cells (mouse melanoma). B16-BL6 metastatic variant was derived from B16-F10. This cell variant was obtained from Dr. Linda D. Williams, Dept. of Cancer Biology, MD Anderson Cancer Center, Texas, USA. […] Cells were maintained at 37° C. in a humidified atmosphere (5% CO2, 95% air).
as §1

[4] = format: in vivo
Source text: as §1

[5] = test system: human metastatic prostate cancer PC-3M cells; assay: Orthotopic PC-3M prostate cancer model in SCID mice, primary tumor and metastases; format: in vivo, male SCID; conditions: 32-mouse study
Source text: PC-3 & PC-3M (human prostate carcinoma). The PC-3 human prostate cancer cell line was originally obtained from the American Type Culture Collection (Rockville, Md.). The PC-3M cell line was kindly provided by Dr. Issac (MD Anderson Cancer Center). This cell variant was derived from a liver metastasis produced by the parental PC-3 cells growing in the spleen of a nude mouse [Pettaway C A, Pathak S, Greene G. et al. Selection of highly metastatic variants of different human prostate carcinomas utilizing orthotopic implantation in nude mice. Clin Cancer Res 1996; 2:1627-36].
Cell cultures were maintained in 5% CO2/95% air at 37° C. SKMEL-V (human melanoma cells). SKMEL-V cells were derived from SKMEL-24 cells (ATCC) by overexpression of mouse VEGF.
Exponentially growing cells were harvested using a brief exposure to 0.25% trypsins:0.1% EDTA solution (w/v).
Mice were anesthesized with isofluorane given by inhalation and placed in a supine position. Betadine and 75% Ethanol was used to clean the skin of abdomen. A low midline incision was made and the prostate was exposed. Fifty microliters of HBSS containing 1×10^6 cells was injected into a lateral lobe of the prostate. […]
Primary tumors in the prostate were excised, measured, and weighed. […]
The in vivo data was analyzed using the Mann-Whitney U test.

[6] = test system: human pancreatic tumor cells; assay: Cell proliferation assay ([3H] thymidine incorporation), pancreatic tumor cells; format: cell-based; conditions: 6.5 μM, 18 h

For `Cl.FC[C@@H]1CO[C@@](CCc2ccc(Cl)cc2)(Cn2ccnc2)O1` [QC-47, (2R,4S)-1-{2-[2-(4-Chlorophenyl)ethyl]-4-fluoromethyl-[1,3]dioxolan-2-ylmethyl}-1H-imidazole hydrochloride], which IC50 (HO-2 (rat brain)) is on record?
The IC50 was > 100 µM.

What about the IC50 (HO-1 (rat spleen)) of the same compound?
Its IC50 is 6 ± 3 µM.

For `Brc1ccc(CCC2(Cn3ccnc3)OCCO2)cc1.Cl` [QC-56, 1-((2-(2-(4-Bromophenyl)ethyl)-1,3-dioxolan-2-yl)methyl)-1H-imidazole hydrochloride], which “tolerability after multiple administrations” value ([1]; 50 mg/kg) is on record?
The value was “well tolerated”.

And the “tolerability at repeated doses” value ([1]; 30 and 60 mg/kg, intraperitoneal, hydrochloride)?
Its value is “well tolerated at repeated doses of 30 and 60 mg/kg with minor changes in body weights with no apparent toxicity; also recorded: well tolerated”.

And the toxic single dose ([1]; intraperitoneally, single dose)?
Its toxic single dose is ≥ 100 mg/kg.

What about the mortality [2] of the same compound?
The mortality was “not”.

What about the “macroscopic nodules in the lungs (average)” value [3] of the same compound?
The value was 51 nodules.

What about the “toxicity in the combination study” value ([4]; QC-56 60 mg/kg ip, 4 cycles, chemotherapy drugs ip) of the same compound?
The value was “No apparent toxicity”.

And the “tolerability at multiple doses up to 100 mg/kg” value ([4]; multiple doses up to 100 mg/kg, intraperitoneal and intravenous routes, hydrochloride)?
The value was “well tolerated with no apparent signs of toxicity; also recorded: well tolerated”.

And the “formation of macroscopic lymph node metastases” value [5]?
Its value is “complete inhibition”.

What about the “3H-thymidine incorporation, non-transfected cells” value ([6]; compared to untreated cells, hydrochloride) of the same compound?
The value was “significantly attenuated ^3H-thymidine incorporation; also recorded: marked reduction in the rate of cellular proliferation”.

What about the “3H-thymidine incorporation, hHO-1 transfected cells” value ([6]; hHO-1 transfected human pancreatic tumor cells) of the same compound?
Its value is “significantly attenuated the effects of hHO-1 transfection on ^3H-thymidine incorporation”.
